The text below walks through data of patent US20260124192A1, “COMPOUNDS, COMPOSITIONS, AND METHODS OF TREATING RNA VIRAL INFECTIONS” (priority 2024, published 2026).

As a reminder, the IC50 is the point on the concentration scale where inhibition reaches its midpoint.

Read-outs that look alike come from different tables or passages of the source.

Series [1] concerns SARS-CoV-2 Beta (B.1.351). Briefly: SARS-CoV-2 IF assay, HeLa-ACE2 (Method 1). The conditions noted are these: 2% FBS. The format is cell-based.
For series [2], the system named is SARS-CoV-2 Omicron (B.1.1.529). Briefly: SARS-CoV-2 IF assay, HeLa-ACE2 (Method 1). The format is cell-based. The settings on record: Severe acute respiratory syndrome coronavirus 2, HeLa-ACE2, SARS-CoV-2 Omicron (B.1.1.529), 2% FBS.
Series [3] has as its system SARS-CoV-2 Delta (B.1.617.2). The experiment in a line: SARS-CoV-2 IF assay, HeLa-ACE2 (Method 1). The series is classed as cell-based. The settings on record: 2% FBS.
A short description of series [4]: in vitro. The conditions noted are these: human, CC50 (μM), A549-ACE2; with CPE assays (SARS-CoV-2 WA1, Delta, OC43); not converted for FBS.
The subject of series [5] is SARS-CoV-2 Delta (B.1.617.2). Briefly: SARS-CoV-2 CPE assay, Vero 76 (Method 2). The format is cell-based. The settings on record: Severe acute respiratory syndrome coronavirus 2, 2% FBS.
In the next series the test system is Vero 76 cells. The conditions noted are these: with CPE assays (SARS-CoV-2 WA1, Delta), not converted for FBS.
The next series relates to A549-ACE2 cells. The conditions noted are these: with CPE assays (SARS-CoV-2 WA1, Delta, OC43), not converted for FBS.
A short description of series [6]: Cytotoxicity, MTT assay in uninfected A549. The series is classed as cell-based. The settings on record: human, uninfected A549 cells, with Influenza A IF assay, not converted.
The subject of the next series is 13 viruses and variants. Briefly: organism not typed. The series is classed as cell-based. The conditions noted are these: read-out: antiviral activity (best EC50 per virus/strain/variant).
Series [7] has as its system SARS-CoV-2 USA-WA1/2020. The experiment in a line: SARS-CoV-2 CPE assay, Vero E6 (Method 2). The settings on record: Severe acute respiratory syndrome coronavirus 2, Vero C1008, 2% FBS. The series is classed as cell-based.
A further series concerns Influenza A H1N1/WSN/33. Briefly: Influenza A virus IF assay, A549 (Method 7).
Series [8] is described as follows: in vitro. The conditions noted are these: human.
Series [9] relates to Influenza B Yamagata/Brisbane. Briefly: Influenza B CPE assay, MDCK. The format is cell-based. The settings on record: Influenza B virus, albumin content N/A. An excerpt: (§1) The antiviral assays were cell line based and consisted in transfecting each of the viruses tested in a compatible cell line. Upon infection and after drug treatment, viral survival and cell toxicity were reported from the readout of three different assays: cytopathic effect (CPE), viral yield reduction (VYR), or immunofluorescence (IF).

Series [10] deals with Influenza B Victoria/Florida. Briefly: Influenza B CPE assay, MDCK. The series is classed as cell-based. The settings on record: Influenza B virus, albumin content N/A.
Excerpt: as §1

Series [11] is described as follows: in vitro. The conditions noted are these: African green monkey, CC50 (μM), Vero 76; with CPE assays (SARS-CoV-2 WA1, Delta); not converted for FBS.
The test system of series [12] is MCF7 wild-type cell lines. Briefly: MCF7 growth inhibition assay (Cell Titre Glo 2.0). The series is classed as cell-based. The conditions noted are these: Homo sapiens, MCF7, 120 h, read-out: MCF-7 IC50 (μM). How it is done:
The growth inhibition properties of inhibitors on MCF7 wild-type cell lines were evaluated using the Cell Titre Glo 2.0 cell viability reagent. The assay utilized 384-well black clear bottom plates with 20 μl of MCF7 wild-type cell suspension mixed with reference/test compounds and 20 μl of Cell Titre Glo 2.0 reagent. Cells were seeded at a density of 1000 cells/well in DMEM High Glucose culture media+10% Fetal Bovine Serum (FBS). Staurosporine and Camptothecin served as positive controls for confirming cytotoxicity at a concentration of 30 μM, and vehicle control of 1% DMSO was used to standardize conditions across all test points. The assay and culture media both contained 1% DMSO. Assays were conducted in duplicate for each concentration of the test compounds. The incubation period for the assay was set at 120 hours, after which growth inhibition was assessed. Using a multi-mode reader, the assay readout was based on luminescence measured in Relative Light Units (RLUs). The viability luminescence signal was monitored continually from the same wells over an extended period, allowing for detailed analysis of cell viability. Measurements were taken using an integration time ranging from 0.25 to 1 second across plates designated for various time points.
Cells were maintained and seeded in 384 […] plates, maintaining 1000 cells/well. Seeded plates were incubated at 37° C., 5% CO2 for 16-18 hours to ensure optimal cell adherence and growth. Post-incubation, reference, and test compounds were added carefully to the wells for further processing. Plates were incubated again at 37° C., 5% CO2 for 120 hours (5 days) to allow compound effects. This was followed by the addition of CTG reagent as per the kit's instruction protocol for 30 minutes and RLU data to be recorded. Post plate read data to be analyzed using GraphPad Prism for software IC50 value generation.
Next, the NCEs were tested for selective estrogen regulation modulation activity by using a growth inhibition assay. The assay is performed on MCF7 cells, which are derived from a hormone-dependent breast cancer that stops growing upon estrogen receptor inhibition. […] Staurosporine and Camptothecin served as positive controls for cytotoxicity and 1% DMSO as the vehicle control.

Series [13] relates to SARS-CoV-2 Alpha (B.1.1.7). The experiment in a line: SARS-CoV-2 IF assay, HeLa-ACE2 (Method 1). The format is cell-based. The conditions noted are these: 2% FBS.
Series [14] is described as follows: Cytotoxicity, neutral red dye-uptake, HG23. The series is classed as cell-based. The conditions noted are these: human, HG23 cells, with Norwalk Virus CPE assay, not converted. Here is the method:
Compounds were tested in an assay medium containing 2% fetal bovine serum (FBS). Test compounds were added to cells prior to infection with virus at a multiplicity of infection (MOI) sufficient to induce visible cytopathic effect (CPE). […] Additionally, the EC90 was defined as the concentration required to achieve a 1 log10 reduction in viral titer. Dose-response curves depicting viral CPE (red line) and compound cytotoxicity (purple line) were generated to support these analyses.

For series [15], the system named is SARS-CoV-2 USA-WA1/2020. Briefly: SARS-CoV-2 CPE assay, A549-ACE2 (Method 2). The series is classed as cell-based. The settings on record: 2% FBS.

Description for Influenza A H1N1/WSN/33: A549 cells were infected with each viral strain at MOI 0.05. After 24 h post-infection with A/WSN/33 cells were fixed with 4% formaldehyde for 30 min. Cells were briefly washed with PBS, then permeabilized with 0.1% Triton X-100 in PBS for 15 minutes. Blocking occurred at room temperature for 1 hour with 0.5% BSA in PBS followed by incubation with the NP antibody (HT103, a gift from Thomas Moran) in 0.5% BSA in PBS for 1 hour at room temperature. Cells were washed with PBS 2× and incubated with a fluorescently-labeled secondary antibody, alexa-fluor-488 (Invitrogen), in 0.5% BSA in PBS with DAPI for 45 min at room temperature. Two washes with PBS were performed before imaging the cells on a Celigo Image Cytometer. Infected cells (488 nm) and total cells (DAPI) were quantified using the Celigo (Nexcelcom) imaging cytometer. Infectivity was measured by the accumulation of viral NP protein (fluorescence accumulation). Percent infection was quantified as ((Infected cells/Total cells)−Background)*100 and the DMSO control was then set to 100% infection for analysis. Data was fit using nonlinear regression and IC50s for each experiment were determined using GraphPad Prism version 8.0.2 (San Diego, CA). Cytotoxicity was also performed using the MTT assay (Roche), according to the manufacturer's instructions. […]

As for `Cc1c(-c2ccc(O)cc2)n(Cc2ccc(OCCN3CCCCC3)cc2)c2ccc(O)cc12` [Pipendoxifene], the EC50 in [1] (SARS-CoV-2 Beta (B.1.351)) was determined as 668 nM; in series [1] (Severe acute respiratory syndrome coronavirus 2, HeLa-ACE2, SARS-CoV-2 Beta (B.1.351)), 1050 nM; in [2], 750 nM; in series [3] (SARS-CoV-2 Delta (B.1.617.2)), 677 nM; in series [3] (Severe acute respiratory syndrome coronavirus 2, HeLa-ACE2, SARS-CoV-2 Delta (B.1.617.2)) it was 740 nM; in series [5], 2400 nM. For the same compound, the EC50 in the series with 13 viruses and variants was less than 10000 nM; in the series on SARS-CoV-2 USA-WA1/2020 [7] it was 520 nM; in the series on Influenza A H1N1/WSN/33, 7490 nM; in [9] (read-out: Corrected EC50), 6700 nM; in series [9] (read-out: EC50) it was 6700 nM; in series [10] (read-out: Corrected EC50), 4100 nM. Besides, the EC50 came to 4100 nM in series [10] (read-out: EC50); 1200 nM in series [13] (SARS-CoV-2 Alpha (B.1.1.7)); 830 nM in [13] (Severe acute respiratory syndrome coronavirus 2, HeLa-ACE2, SARS-CoV-2 Alpha (B.1.1.7)); 1900 nM with SARS-CoV-2 USA-WA1/2020 [15]. Moreover, the CC50 in “in vitro [4]” is greater than 10 µM; with Vero 76 cells, 3200 nM; in the series with A549-ACE2 cells it was greater than 15000 nM; in the series “in vitro [8]”, 1000 nM; in the series “in vitro [11]” it was 2.9 µM; in [14], 18000 nM. In [6], the CC50 at 24 h came to 13700 nM. Further, the IC50 in series [12] is 0.00064 µM.
